What was measured:
[1] = system: HEPG2 (human liver) cell line; experiment: MTT anticancer assay, HepG2; format: cell-based; conditions: for IC50 against HepG2: MTT
Method: (§1) The in vitro anticancer activity is determined by counting the viable cells that are stained with a vital dye. The MTT technique is an accurate measure of the activity of live cells using mitochondrial dehydrogenases. The target tumor cells A549 (human lung adenocarcinoma) and HEPG2 (human liver) cell lines are procured from the “National Centre for Cell Science” (NCCS, Pune). The sources of reagents like Trypsin, DMEM, Pen strip, and FBS are procured from Himedia. […] The culture medium was prepared, and the MTT assay was performed as per the general procedure described by Mosmann T. et al., [30] and the % viability of the cells was determined.
(§2) The target compounds tested for in vitro COX-2 were further checked for in vitro anti-cancer activity against A549 (lung cancer) and HepG2 (liver cancer) cell lines using MTT growth inhibition assay. The compounds were tested for cytotoxicity against both the cell lines at concentrations of 6.25, 12.5, 25, 50, and 100 µg/mL. […] Using the graph where % cell viability is plotted versus concentration, the IC50 values are determined with the help of the dose–response regression equation.

[2] = molecular target: BSA (bovine albumin serum) (Bos taurus, UniProt P02769); experiment: Protein (albumin) denaturation assay; conditions: maximum inhibition; compounds tested at 50-200 µg/mL, diclofenac 100 µg/mL
BSA (bovine albumin serum), sequence (P02769 25-607): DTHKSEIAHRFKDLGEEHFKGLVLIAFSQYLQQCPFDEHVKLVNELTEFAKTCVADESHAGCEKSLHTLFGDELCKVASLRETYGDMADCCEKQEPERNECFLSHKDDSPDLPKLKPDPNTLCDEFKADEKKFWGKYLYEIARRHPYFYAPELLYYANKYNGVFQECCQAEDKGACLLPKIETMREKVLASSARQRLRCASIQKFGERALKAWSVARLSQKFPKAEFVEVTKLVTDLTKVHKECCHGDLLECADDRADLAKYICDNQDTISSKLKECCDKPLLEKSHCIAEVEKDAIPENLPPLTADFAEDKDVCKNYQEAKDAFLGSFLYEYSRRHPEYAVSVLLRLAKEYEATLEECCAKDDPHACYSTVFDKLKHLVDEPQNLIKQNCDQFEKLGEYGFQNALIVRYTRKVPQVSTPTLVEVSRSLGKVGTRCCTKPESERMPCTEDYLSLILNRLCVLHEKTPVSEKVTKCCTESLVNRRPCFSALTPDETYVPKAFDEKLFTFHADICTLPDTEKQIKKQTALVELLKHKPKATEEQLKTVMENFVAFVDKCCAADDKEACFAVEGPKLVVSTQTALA
Method: Mizushima and Kobayashi’s technique was employed for the determination of in vitro anti-inflammatory activity by the protein denaturation method for the synthesized compounds. […] Then, a mixture of 500µL of 1% aqueous solution of BSA (bovine albumin serum) and 1.4 mL of phosphate buffer saline (PBS, pH 7.4) was added to 100 µL of varying concentrations of the synthesized compounds 50, 100, and 200 µg/mL. […] The mixtures are then incubated for 15 min at 37 °C and then heated for 10 min at 60 °C. The absorbance was measured at 660nm (SHIMADZU, UV-1800 Spectrophotometer) upon cooling. […] The entire experiment was done in triplicate, and the average was calculated. % inhibition of protein denaturation was calculated by: % inhibition=Absorbance of Control−Absorbance of Sample/Absorbance of Control×100
The anti-inflammatory capacity of the target compound was evaluated using the protein denaturation assay.

[3] = system: A549 (human lung adenocarcinoma) cell line; experiment: MTT anticancer assay, A549; format: cell-based; conditions: for IC50 against A549: MTT
Method: as §1, §2

[4] = molecular target: T1, human COX-1 (Homo sapiens, UniProt P23219); experiment: In vitro COX-1 enzymatic assay (Cayman COX (human) Inhibitor Screening Assay Kit); format: biochemical; conditions: for COX-1 IC50: human COX-1
T1 construct: purchased Cayman chemicals 701230
T1 sequence (P23219 24-599): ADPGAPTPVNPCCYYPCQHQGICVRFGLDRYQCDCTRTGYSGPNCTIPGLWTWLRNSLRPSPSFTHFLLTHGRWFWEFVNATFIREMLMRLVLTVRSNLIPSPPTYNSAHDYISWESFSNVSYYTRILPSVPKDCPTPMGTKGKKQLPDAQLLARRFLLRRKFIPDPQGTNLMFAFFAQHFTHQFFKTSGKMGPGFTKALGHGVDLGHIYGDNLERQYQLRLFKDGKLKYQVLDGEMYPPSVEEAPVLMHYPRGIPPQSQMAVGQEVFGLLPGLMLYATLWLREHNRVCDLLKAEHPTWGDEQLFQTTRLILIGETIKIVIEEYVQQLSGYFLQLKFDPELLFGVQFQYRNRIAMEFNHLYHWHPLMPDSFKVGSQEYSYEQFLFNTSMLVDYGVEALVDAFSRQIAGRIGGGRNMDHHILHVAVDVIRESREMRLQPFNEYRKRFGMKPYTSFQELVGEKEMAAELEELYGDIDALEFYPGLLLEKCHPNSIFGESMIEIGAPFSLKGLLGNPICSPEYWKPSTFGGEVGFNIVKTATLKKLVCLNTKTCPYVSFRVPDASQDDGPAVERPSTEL
Method: The ability of the compounds to inhibit COX -2 (IC50 values, µM) was determined by using a “COX (human) Inhibitor Screening Assay Kit” procured from Cayman Chemicals (catalog number 701230). With a slight modification in the method as defined in the reference, the COX-2 inhibition assay was performed. Using the percent conversion of arachidonic acid (AA) to PGH2, the enzyme activity was calculated. By enzyme immunoassay PGF2α, which is produced from PGH2 by reduction with stannous chloride, is calculated. The test compounds’ stock solutions are prepared by dissolving in a minimum amount of DMSO. Human COX-2 (10 µL) in the presence of 10 µL of heme was suspended in 0.1M Tris-HCl buffer (pH 8.0) which contains 2 mM phenol and 5 mM EDTA. This was added to various concentrations of test compounds and, on incubating the solutions at 37 °C for 5 min, 10 µL of AA solution were added. Later, the COX reaction was stopped by adding 1M HCl (50 µL) after 2 min. The intensity of the yellow color which is produced as the product of the enzymatic reaction is determined spectrophotometrically. The percent inhibition was calculated by comparing the compound treated to different control incubations. Celecoxib is utilized as the standard for the assay. The determinations are done in triplicate and the IC50 (µM) was determined using the concentration–inhibition response curve.
During the initiation of the inflammatory process, the COX enzyme plays a vital role in the progression of inflammatory response. The inflammatory mediators that arise due to the action of COX lead to the chemoattraction of neutrophils, macrophages, eosinophils, etc. Due to the involvement of COX in inflammatory diseases, inhibitors of this enzyme can help in designing effective therapeutic agents. […] This was carried out with the help of a COX (human) inhibitor screening assay kit (Item no. 701230) from Cayman chemicals. […] A test substance concentration was considered to be inhibitive when it inhibited human COX-1 or COX-2 by 50%. The compound’s selectivity was measured by its selectivity index values, derived as IC50 (COX-1)/IC50 (COX-2).

Row | Compound | % cell viability ([1]; HepG2, 6.25 µg/ml) [%] | % cell viability ([1]; HepG2, 12.5 µg/ml) [%] | % cell viability ([1]; HepG2, 25 µg/ml) [%] | % cell viability ([1]; HepG2, 50 µg/ml) [%] | % cell viability ([1]; HepG2, 100 µg/ml) [%] | IC50 against HepG2 [1] [µM] | % inhibition of albumin denaturation [2] [%] | % cell viability ([3]; A549, 6.25 µg/ml) [%] | % cell viability ([3]; A549, 12.5 µg/ml) [%] | % cell viability ([3]; A549, 25 µg/ml) [%] | % cell viability ([3]; A549, 50 µg/ml) [%] | % cell viability ([3]; A549, 100 µg/ml) [%] | IC50 against A549 ([3]; A549) [µM] | % COX-1 Inhibition ([4]; 0.781 μg/ml) [%] | % COX-1 Inhibition ([4]; 1.562 μg/ml) [%] | % COX-1 Inhibition ([4]; 3.125 μg/ml) [%] | % COX-1 Inhibition ([4]; 6.25 μg/ml) [%] | % COX-1 Inhibition ([4]; 12.5 μg/ml) [%] | % COX-1 Inhibition ([4]; 25 μg/ml) [%] | % COX-1 Inhibition ([4]; 50 μg/ml) [%] | also measured
1 | NS(=O)(=O)c1ccc(-n2nc(C(=O)NN=Cc3cccc(Oc4ccccc4)c3)cc2-c2ccc(Cl)cc2)cc1 [Compound T3, 4-(5-(4-chlorophenyl)-3-(2-(3-phenoxybenzylidene) hydrazine-1-carbonyl)-1H-pyrazol-1-yl) benzenesulfonamide] | 84.39 | 84.40 | 73.65 | 73.62 | 54.76 | > 100 | 63.32 | 95.77 | 86.16 | 60.37 | 46.16 | 24.18 | 40.14 | 16.22 ± 0.61 | 24.62 ± 2.13 | 49.90 ± 2.32 | 61.14 ± 3.03 | 73.08 ± 1.76 | 77.09 ± 0.66 | 85.41 ± 0.12 | anti-cancer activity against A549 cell lines (in words) ([3]; A549): active; concentration at which compound was effective (from % inhibitory values) ([3]; A549 cell lines): 50 µg/mL; % COX-1 Inhibition ([4]; 100 μg/ml): 87.94 ± 0.94%; % COX-1 Inhibition ([4]; 250 μg/ml): 89.26 ± 0.71%; COX-1 IC50 [4]: 4.655 µM
2 | Cc1cc(C=NNC(=O)c2cc(-c3ccc(Br)cc3)n(-c3ccc(S(N)(=O)=O)cc3)n2)cc(C)c1OCc1ccccc1 [Compound T5, 4-(3-(2-(4-(benzyloxy)-3,5-dimethylbenzylidene) hydrazine-1-carbonyl)-5-(4-bromophenyl)-1H-pyrazol-1-yl) benzenesulfonamide] | 84.40 | 73.66 | 73.42 | 54.76 | 39.32 | 66.93 | 70.87 | 97.15 | 92.32 | 72.36 | 62.43 | 30.52 | 60.95 | 14.39 ± 2.17 | 21.90 ± 2.60 | 45.47 ± 1.94 | 57.14 ± 2.17 | 72.58 ± 3.09 | 76.66 ± 1.30 | 84.01 ± 1.77 | concentration at which compound was effective (from % inhibitory values) ([1]; HepG2 cell lines): 50 µg/mL; % COX-1 Inhibition ([4]; 100 μg/ml): 88.49 ± 0.36%; % COX-1 Inhibition ([4]; 250 μg/ml): 91.75 ± 2.76%; COX-1 IC50 [4]: 5.596 µM

— paper PMC11048033, “Dual Anti-Inflammatory and Anticancer Activity of Novel 1,5-Diaryl Pyrazole Derivatives: Molecular Modeling, Synthesis, In Vitro Activity, and Dynamics Study” (Biomedicines, 2024)
